Test results as given in the supplement of paper PMC10307832.

Key:
Assay in all cases: relative viability (nuclei count vs DMSO), 5 days (fraction); higher = more cells survive
BX 795 + Tozasertib = compound: O=C(NCCCNc1nc(Nc2cccc(NC(=O)N3CCCC3)c2)ncc1I)c1cccs1 [BX 795] + Cc1cc(Nc2cc(N3CCN(C)CC3)nc(Sc3ccc(NC(=O)C4CC4)cc3)n2)n[nH]1 [Tozasertib] (partner 0.1 µM)
In short: (§1)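 Each reported value is a median over duplicate plates. It expresses relative viability: treated-well nuclei count divided by vehicle-well nuclei count. Lung cancer cell lines in 1536-well plates were dosed by pin tool a day after seeding, alone with one drug or with a fixed anchor-drug dose plus five library-drug doses (not always all listed) in √10 steps, and nuclei were counted after 5 days.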

BX 795 + Linsitinib = compound: O=C(NCCCNc1nc(Nc2cccc(NC(=O)N3CCCC3)c2)ncc1I)c1cccs1 [BX 795] + C[C@]1(O)C[C@@H](c2nc(-c3ccc4ccc(-c5ccccc5)nc4c3)c3c(N)nccn32)C1 [Linsitinib] (partner 1 µM)
In short: as §1

BX 795 + Foretinib = compound: O=C(NCCCNc1nc(Nc2cccc(NC(=O)N3CCCC3)c2)ncc1I)c1cccs1 [BX 795] + COc1cc2c(Oc3ccc(NC(=O)C4(C(=O)Nc5ccc(F)cc5)CC4)cc3F)ccnc2cc1OCCCN1CCOCC1 [Foretinib] (partner 0.25 µM)
In short: as §1

BX 795 + Olaparib = compound: O=C(NCCCNc1nc(Nc2cccc(NC(=O)N3CCCC3)c2)ncc1I)c1cccs1 [BX 795] + O=C(c1cc(Cc2n[nH]c(=O)c3ccccc23)ccc1F)N1CCN(C(=O)C2CC2)CC1 [Olaparib] (partner 8 µM)
In short: as §1

BX 795 + AZD7762 = compound: O=C(NCCCNc1nc(Nc2cccc(NC(=O)N3CCCC3)c2)ncc1I)c1cccs1 [BX 795] + NC(=O)Nc1cc(-c2cccc(F)c2)sc1C(=O)N[C@H]1CCCNC1 [AZD7762] (partner 0.2 µM)
In short: as §1

| Cell Line | relative viability (BX 795 + Tozasertib; first compound 0.04 µM) | relative viability (BX 795 + Tozasertib; first compound 0.1265 µM) | relative viability (BX 795 + Tozasertib; first compound 0.4 µM) | relative viability (BX 795 + Tozasertib; first compound 1.265 µM) | relative viability (BX 795 + Linsitinib; first compound 0.04 µM) | relative viability (BX 795 + Linsitinib; first compound 0.1265 µM) | relative viability (BX 795 + Linsitinib; first compound 0.4 µM) | relative viability (BX 795 + Linsitinib; first compound 1.265 µM) | relative viability (BX 795 + Foretinib; first compound 0.04 µM) | relative viability (BX 795 + Foretinib; first compound 0.1265 µM) | relative viability (BX 795 + Foretinib; first compound 0.4 µM) | relative viability (BX 795 + Foretinib; first compound 1.265 µM) | relative viability (BX 795 + Olaparib; first compound 0.04 µM) | relative viability (BX 795 + Olaparib; first compound 0.1265 µM) | relative viability (BX 795 + Olaparib; first compound 0.4 µM) | relative viability (BX 795 + Olaparib; first compound 1.265 µM) | relative viability (BX 795 + AZD7762; first compound 0.04 µM) | relative viability (BX 795 + AZD7762; first compound 0.1265 µM) | relative viability (BX 795 + AZD7762; first compound 0.4 µM) | relative viability (BX 795 + AZD7762; first compound 1.265 µM) |
| --- | --- | --- | --- | --- | --- | --- | --- | --- | --- | --- | --- | --- | --- | --- | --- | --- | --- | --- | --- | --- |
| NCI-H1755 | 0.681 | 0.481 | 0.553 | 0.508 | 1.04 | 0.93 | 1.01 | 0.689 | 0.926 | 0.865 | 0.894 | 0.67 | 0.961 | 0.858 | 0.956 | 0.725 | 0.465 | 0.467 | 0.374 | 0.386 |
| NCI-H1793 | 0.372 | 0.326 | 0.375 | 0.213 | 0.874 | 1.06 | 1.01 | 0.507 | 0.887 | 0.663 | 0.834 | 0.266 | 0.972 | 0.856 | 0.928 | 0.804 | 0.425 | 0.447 | 0.484 | 0.487 |
| NCI-H1915 | 0.473 | 0.413 | 0.405 | 0.241 | 1.16 | 1.09 | 1.08 | 1.02 | 1.07 | 1.1 | 1.08 | 0.995 | 0.297 | 0.26 | 0.217 | 0.242 | 0.651 | 0.658 | 0.666 | 0.695 |
| NCI-H1944 | 0.286 | 0.236 | 0.302 | 0.243 | 1.25 | 1.36 | 1.14 | 1.1 | 0.996 | 0.888 | 1.06 | 0.802 | 0.476 | 0.403 | 0.542 | 0.403 | 0.531 | 0.555 | 0.48 | 0.531 |
| NCI-H1975 | 0.707 | 0.794 | 0.623 | 0.234 | 0.83 | 1.04 | 0.977 | 0.659 | 0.833 | 1.11 | 0.972 | 0.898 | 0.811 | 0.961 | 0.632 | 0.586 | 0.705 | 0.792 | 0.67 | 0.564 |
| NCI-H1993 | 0.582 | 0.553 | 0.527 | 0.55 | 0.628 | 0.732 | 0.713 | 0.696 | 0.804 | 0.961 | 0.73 | 0.665 | 0.847 | 0.92 | 1.16 | 0.92 | 0.759 | 0.795 | 0.589 | 0.809 |
| NCI-H2085 | 0.797 | 0.84 | 0.771 | 0.66 | 0.883 | 0.961 | 1.04 | 0.737 | 1.05 | 1.05 | 0.873 | 0.809 | 0.827 | 0.833 | 0.914 | 0.72 | 0.895 | 0.932 | 0.947 | 0.957 |
| NCI-H2087 | 0.266 | 0.293 | 0.307 | 0.183 | 1.1 | 0.924 | 1.06 | 0.647 | 1.06 | 1.13 | 1.24 | 0.623 | 0.833 | 0.761 | 0.781 | 0.448 | 1.26 | 1.33 | 1.32 | 1.13 |
| NCI-H2126 | 0.85 | 0.883 | 0.831 | 0.758 | 0.714 | 0.656 | 0.757 | 0.701 | 1.31 | 1.02 | 1.3 | 1.03 | 0.982 | 0.909 | 1 | 0.893 | 1.02 | 1.01 | 1.01 | 0.983 |
| NCI-H2347 | 0.817 | 0.64 | 0.603 | 0.441 | 1.09 | 0.962 | 1.17 | 0.942 | 1.03 | 0.915 | 0.8 | 0.773 | 0.679 | 0.658 | 0.646 | 0.515 | 0.806 | 0.838 | 0.677 | 0.578 |
| NCI-H2405 | 0.799 | 0.715 | 0.746 | 0.581 | 0.871 | 0.828 | 0.678 | 0.694 | 1.08 | 1.06 | 1.02 | 0.935 | 1.03 | 0.839 | 0.558 | 0.878 | 0.714 | 0.678 | 0.664 | 0.573 |
| NCI-H3122 | 0.387 | 0.415 | 0.323 | 0.356 | 0.989 | 1.02 | 1.08 | 1.1 | 1.01 | 1.04 | 1 | 0.992 | 0.573 | 0.609 | 0.539 | 0.669 | 1.06 | 1.07 | 0.937 | 1.03 |
| PC-3 [JPC-3] | 0.931 | 0.851 | 0.881 | 0.872 | 1.02 | 1.02 | 0.979 | 0.976 | 1.03 | 1.03 | 1.03 | 0.949 | 1.16 |  | 1.04 | 1.09 | 0.809 |  | 0.685 | 0.802 |
| PC-14 | 0.619 | 0.595 | 0.47 | 0.427 | 0.923 | 0.917 | 0.879 | 0.75 | 0.861 | 1.01 | 0.992 | 0.704 | 0.241 | 0.298 | 0.139 | 0.236 | 0.369 | 0.383 | 0.335 | 0.282 |
| RERF-LC-KJ | 0.599 | 0.501 | 0.445 | 0.217 | 0.881 | 0.891 | 0.94 | 0.874 | 0.907 | 0.851 | 0.889 | 0.888 | 0.919 | 0.963 | 0.945 | 0.409 | 1.16 | 1.05 | 1.11 | 0.86 |
